Consider 15 compounds from US12685735B2 (Foghorn Therapeutics Inc., priority 2020, dated 2026).

The term IC50 denotes the concentration that gives 50% inhibition.

In one experiment the target is BRM (Homo sapiens, UniProt P51531). Nature of the experiment: ATPase catalytic activity assay of BRM (ADP-Glo). Type of experiment: biochemical. Particulars: for IC50: read-out: BRM IC50 (μM)*. In short, it runs like this: (§1)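 Luminescent ADP-Glo readout of ADP generated by ATP hydrolysis. Post-reaction: ATP depletion reagent, RT 40 min; detection reagent converting ADP→ATP, RT 60 min; luminescence read.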
Sequence of BRM (P51531 whole entry): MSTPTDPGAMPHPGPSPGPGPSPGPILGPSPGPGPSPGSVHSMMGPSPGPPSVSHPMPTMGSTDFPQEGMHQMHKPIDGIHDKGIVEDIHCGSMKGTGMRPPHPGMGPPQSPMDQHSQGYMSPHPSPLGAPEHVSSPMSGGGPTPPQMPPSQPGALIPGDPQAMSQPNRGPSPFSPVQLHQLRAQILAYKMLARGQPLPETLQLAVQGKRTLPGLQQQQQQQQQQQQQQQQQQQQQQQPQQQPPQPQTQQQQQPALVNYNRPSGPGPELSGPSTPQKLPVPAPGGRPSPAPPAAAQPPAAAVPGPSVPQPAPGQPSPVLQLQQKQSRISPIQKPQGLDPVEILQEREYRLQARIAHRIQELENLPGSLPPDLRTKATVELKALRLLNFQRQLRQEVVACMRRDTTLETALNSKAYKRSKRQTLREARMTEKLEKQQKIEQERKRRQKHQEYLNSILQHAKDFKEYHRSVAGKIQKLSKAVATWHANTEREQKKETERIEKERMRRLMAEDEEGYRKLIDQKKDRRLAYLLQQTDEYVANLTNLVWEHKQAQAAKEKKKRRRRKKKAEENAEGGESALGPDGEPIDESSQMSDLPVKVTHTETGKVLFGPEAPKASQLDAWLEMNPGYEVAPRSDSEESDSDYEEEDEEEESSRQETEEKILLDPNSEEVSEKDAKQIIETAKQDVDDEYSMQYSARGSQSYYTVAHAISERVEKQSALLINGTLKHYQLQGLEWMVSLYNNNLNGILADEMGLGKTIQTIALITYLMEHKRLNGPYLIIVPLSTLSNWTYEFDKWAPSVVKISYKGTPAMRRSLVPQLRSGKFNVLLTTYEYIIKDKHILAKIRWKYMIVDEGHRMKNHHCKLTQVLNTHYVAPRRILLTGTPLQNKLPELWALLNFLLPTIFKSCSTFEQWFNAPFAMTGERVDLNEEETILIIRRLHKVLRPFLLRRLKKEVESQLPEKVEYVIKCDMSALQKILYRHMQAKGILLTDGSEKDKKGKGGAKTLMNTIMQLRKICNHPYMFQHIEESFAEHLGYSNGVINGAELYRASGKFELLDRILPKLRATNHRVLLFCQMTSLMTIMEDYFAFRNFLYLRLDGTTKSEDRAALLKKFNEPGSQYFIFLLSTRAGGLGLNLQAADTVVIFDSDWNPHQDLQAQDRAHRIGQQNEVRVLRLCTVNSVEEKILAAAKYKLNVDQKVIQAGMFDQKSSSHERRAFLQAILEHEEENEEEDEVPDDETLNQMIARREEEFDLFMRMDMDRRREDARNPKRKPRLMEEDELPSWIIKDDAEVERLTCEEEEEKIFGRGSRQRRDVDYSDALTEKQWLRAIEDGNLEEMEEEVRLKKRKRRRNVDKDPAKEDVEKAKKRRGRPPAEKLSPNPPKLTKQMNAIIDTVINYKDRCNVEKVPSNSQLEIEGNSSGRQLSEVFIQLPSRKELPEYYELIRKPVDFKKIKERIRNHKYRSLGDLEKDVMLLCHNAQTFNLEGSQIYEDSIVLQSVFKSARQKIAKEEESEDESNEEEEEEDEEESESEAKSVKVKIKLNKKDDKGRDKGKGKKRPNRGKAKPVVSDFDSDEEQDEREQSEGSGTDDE

The next experiment addresses BRG-1 (Homo sapiens, UniProt P51532). Nature of the experiment: ATPase catalytic activity assay of BRG-1 (ADP-Glo). Type of experiment: biochemical. The settings on record: ATPase catalytic activity, ADP-Glo; for IC50: read-out: BRG1 IC50 (μM)*; for Emax: read-out: BRG1 Max % Inhibition. In short, it runs like this:
as §1
On the technique in general: ADP-Glo first removes unused ATP, then detects ADP through luciferase.

Sequence of BRG-1 (P51532 whole entry): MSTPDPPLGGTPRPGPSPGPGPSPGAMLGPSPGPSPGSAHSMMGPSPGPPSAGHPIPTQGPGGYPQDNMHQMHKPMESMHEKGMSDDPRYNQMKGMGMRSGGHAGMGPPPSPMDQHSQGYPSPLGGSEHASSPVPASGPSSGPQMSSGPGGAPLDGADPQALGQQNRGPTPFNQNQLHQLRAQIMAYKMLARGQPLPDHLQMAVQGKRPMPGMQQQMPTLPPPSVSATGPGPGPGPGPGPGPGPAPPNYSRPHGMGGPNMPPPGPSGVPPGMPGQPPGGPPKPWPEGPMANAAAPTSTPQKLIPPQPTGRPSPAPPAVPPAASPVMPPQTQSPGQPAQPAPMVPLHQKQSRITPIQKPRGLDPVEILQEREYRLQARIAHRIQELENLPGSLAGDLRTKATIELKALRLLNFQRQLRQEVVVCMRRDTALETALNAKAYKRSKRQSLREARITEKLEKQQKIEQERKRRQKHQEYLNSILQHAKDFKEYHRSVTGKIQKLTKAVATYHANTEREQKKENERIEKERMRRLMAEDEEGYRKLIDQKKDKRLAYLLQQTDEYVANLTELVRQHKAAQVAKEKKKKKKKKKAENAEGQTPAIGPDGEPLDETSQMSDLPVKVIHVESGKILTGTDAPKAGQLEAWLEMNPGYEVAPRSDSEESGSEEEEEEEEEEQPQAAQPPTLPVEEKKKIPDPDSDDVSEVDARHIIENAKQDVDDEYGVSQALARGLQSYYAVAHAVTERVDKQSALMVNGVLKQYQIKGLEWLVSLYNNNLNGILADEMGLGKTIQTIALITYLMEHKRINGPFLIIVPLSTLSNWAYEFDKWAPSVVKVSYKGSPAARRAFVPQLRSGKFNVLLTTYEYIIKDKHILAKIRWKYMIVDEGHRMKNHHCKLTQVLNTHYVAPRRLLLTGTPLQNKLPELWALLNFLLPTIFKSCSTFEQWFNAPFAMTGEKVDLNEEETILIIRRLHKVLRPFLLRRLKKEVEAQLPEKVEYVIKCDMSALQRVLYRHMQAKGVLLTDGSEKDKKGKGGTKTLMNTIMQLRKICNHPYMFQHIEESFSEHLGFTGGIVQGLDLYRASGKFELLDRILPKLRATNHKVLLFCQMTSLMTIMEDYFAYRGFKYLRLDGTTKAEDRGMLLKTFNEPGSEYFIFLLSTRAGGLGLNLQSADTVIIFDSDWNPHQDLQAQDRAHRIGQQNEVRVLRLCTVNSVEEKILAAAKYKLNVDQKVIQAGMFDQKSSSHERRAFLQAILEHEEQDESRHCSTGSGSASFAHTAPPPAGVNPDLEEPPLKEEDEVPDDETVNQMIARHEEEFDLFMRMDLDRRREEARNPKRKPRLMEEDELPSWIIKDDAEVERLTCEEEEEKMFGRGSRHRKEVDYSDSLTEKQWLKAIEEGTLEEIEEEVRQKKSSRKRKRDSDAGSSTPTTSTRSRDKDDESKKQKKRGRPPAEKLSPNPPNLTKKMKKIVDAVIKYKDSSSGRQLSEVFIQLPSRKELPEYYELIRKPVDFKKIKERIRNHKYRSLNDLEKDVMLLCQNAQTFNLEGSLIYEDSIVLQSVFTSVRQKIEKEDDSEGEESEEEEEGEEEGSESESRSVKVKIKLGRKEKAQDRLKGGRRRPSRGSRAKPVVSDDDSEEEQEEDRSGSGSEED

`C[C@@]1(C#N)COCc2ccc(C(=O)NCC(=O)Nc3nc(-c4cccc([C@H]5CC5(F)F)n4)cs3)cc21` [Compound 387, (R)-4-cyano-N-(2-((4-(6-((R)-2,2-difluorocyclopropyl)pyridin-2-yl)thiazol-2-yl)amino)-2-oxoethyl)-4-methylisochromane-6-carboxamide]: on BRM, the “BRM Max % Inhibition” value is recorded as >95% and the IC50 was < 0.1 µM. Moreover, on BRG-1, the half-inhibitory concentration (IC50) is 1 to 5 µM and the Emax is > 95%.

As to `C[C@@]1(C#N)COCc2ccc(C(=O)NCC(=O)Nc3nc(-c4cccc([C@@H]5CC5(F)F)c4)cs3)cc21` [Compound 388, (R)-4-cyano-N-(2-((4-(3-((S)-2,2-difluorocyclopropyl)phenyl)thiazol-2-yl)amino)-2-oxoethyl)-4-methylisochromane-6-carboxamide], at BRM, the “BRM Max % Inhibition” value was >95% and the 50% inhibitory concentration (IC50) was < 0.1 µM. Besides, on BRG-1, the 50% inhibitory concentration (IC50) is < 0.1 µM and the Emax was > 95%.

Turning to `Cn1ccc2ccc(-c3csc(NC(=O)CNC(=O)c4ccc5c(c4)[C@](C)(F)COC5)n3)cc2c1=O` [Compound 389, (S)-4-fluoro-4-methyl-N-(2-((4-(2-methyl-1-oxo-1,2-dihydroisoquinolin-7-yl)thiazol-2-yl)amino)-2-oxoethyl)isochromane-6-carboxamide], at BRM, the “BRM Max % Inhibition” value is >95% and the IC50 is < 0.1 µM. On BRG-1, the IC50 was < 0.1 µM and the Emax is > 95%.

On to `COC1CN(c2cccc(-c3csc(NC(=O)CNC(=O)c4ccc5c(c4)[C@](C)(C#N)COC5)n3)c2)C1` [Compound 390, (R)-4-cyano-N-(2-((4-(3-(3-methoxyazetidin-1-yl)phenyl)thiazol-2-yl)amino)-2-oxoethyl)-4-methylisochromane-6-carboxamide], for which, on BRM, the “BRM Max % Inhibition” value is given as >95% and the IC50 was < 0.1 µM. On BRG-1, the concentration for half-maximal inhibition (IC50) is < 0.1 µM and the Emax was > 95%.

As for `C[C@@]1(C#N)COCc2ccc(C(=O)NCC(=O)Nc3nc(-c4cccc([C@H]5CC5(F)F)c4)cs3)cc21` [Compound 391, (R)-4-cyano-N-(2-((4-(3-((R)-2,2-difluorocyclopropyl)phenyl)thiazol-2-yl)amino)-2-oxoethyl)-4-methylisochromane-6-carboxamide], at BRM, the “BRM Max % Inhibition” value is on record as >95% and the IC50 was < 0.1 µM. Further, on BRG-1, the IC50 fell in the range of 0.1 to 1 µM and the Emax was > 95%.

With `C[C@@H]1CN(c2cccc(-c3csc(NC(=O)CNC(=O)c4cccc([C@]5(C)C[C@@H](O)C5)c4)n3)c2)C[C@H](C)O1` [Compound 392, N-(2-((4-(3-((cis)-2,6-dimethylmorpholino)phenyl)thiazol-2-yl)amino)-2-oxoethyl)-3-((1r,3r)-3-hydroxy-1-methylcyclobutyl)benzamide], on BRM, the “BRM Max % Inhibition” value was >90% and the half-inhibitory concentration (IC50) was in the range of 0.1 to 1 µM. On BRG-1, the IC50 was > 5 µM and the Emax was > 90%.

Regarding `C[C@@H]1CN(c2cccc(-c3csc(NC(=O)CNC(=O)c4cccc([C@]5(C)C[C@H](O)C5)c4)n3)c2)C[C@H](C)O1` [Compound 393, N-(2-((4-(3-((cis)-2,6-dimethylmorpholino)phenyl)thiazol-2-yl)amino)-2-oxoethyl)-3-((1s,3s)-3-hydroxy-1-methylcyclobutyl)benzamide], at BRM, the “BRM Max % Inhibition” value is >95% and the IC50 fell in the range of 0.1 to 1 µM. Moreover, at BRG-1, the IC50 is > 5 µM and the Emax was > 95%.

`COc1cccc(-c2csc(NC(=O)CNC(=O)c3ccc4c(c3)C(C)(C#N)CCN4C)n2)c1` (stereo not drawn) [Compound 394, 4-cyano-N-(2-((4-(3-methoxyphenyl)thiazol-2-yl)amino)-2-oxoethyl)-1,4-dimethyl-1,2,3,4-tetrahydroquinoline-6-carboxamide]: on BRM, the “BRM Max % Inhibition” value was >80% and the 50% inhibitory concentration (IC50) lay in the range of 0.1 to 1 µM. Moreover, on BRG-1, the IC50 was > 5 µM and the Emax is > 80%.

For the compound `CC(C)N1CCOc2ccc(C(=O)NCC(=O)Nc3nc(-c4cccc(N5C[C@@H](C)O[C@@H](C)C5)n4)cs3)cc21` [Compound 395, N-(2-((4-(6-((cis)-2,6-dimethylmorpholino)pyridin-2-yl)thiazol-2-yl)amino)-2-oxoethyl)-4-isopropyl-3,4-dihydro-2H-benzo[b][1,4]oxazine-6-carboxamide], at BRM, the “BRM Max % Inhibition” value was >80% and the 50% inhibitory concentration (IC50) was 0.1 to 1 µM. For the same compound, at BRG-1, the IC50 was > 5 µM and the Emax is > 80%.

As to `C[C@@H]1CN(c2cccc(-c3csc(NC(=O)CNC(=O)c4ccc5c(c4)S(=O)(=O)CCC5)n3)c2)C[C@H](C)O1` [Compound 396, N-(2-((4-(3-((cis)-2,6-dimethylmorpholino)phenyl)thiazol-2-yl)amino)-2-oxoethyl)thiochromane-7-carboxamide 1,1-dioxide], at BRM, the “BRM Max % Inhibition” value is listed as >90% and the IC50 lay in the range of 0.1 to 1 µM. Besides, on BRG-1, the IC50 lay within 1 to 5 µM and the Emax is > 90%.

Take `COc1cccc(-c2csc(NC(=O)CNC(=O)c3ccc4c(c3)[C@](C)(C#N)COC4)n2)n1` [Compound 397, (R)-4-cyano-N-(2-((4-(6-methoxypyridin-2-yl)thiazol-2-yl)amino)-2-oxoethyl)-4-methylisochromane-6-carboxamide]: on BRM, the “BRM Max % Inhibition” value was >95% and the IC50 was < 0.1 µM. In addition, on BRG-1, the IC50 fell in the range of 0.1 to 1 µM and the Emax was > 95%.

For `C[C@@]1(C#N)COCc2ccc(C(=O)NCC(=O)Nc3nc(-c4cccc(C(F)F)c4)cs3)cc21` [Compound 398, (R)-4-cyano-N-(2-((4-(3-(difluoromethyl)phenyl)thiazol-2-yl)amino)-2-oxoethyl)-4-methylisochromane-6-carboxamide], on BRM, the “BRM Max % Inhibition” value was >95% and the IC50 was < 0.1 µM. Further, on BRG-1, the IC50 lay in the range of 0.1 to 1 µM and the Emax is > 95%.

For the compound `COc1cc(-c2csc(NC(=O)CNC(=O)c3ccc4c(c3)[C@](C)(C#N)COC4)n2)ccc1F` [Compound 399, (R)-4-cyano-N-(2-((4-(4-fluoro-3-methoxyphenyl)thiazol-2-yl)amino)-2-oxoethyl)-4-methylisochromane-6-carboxamide], on BRM, the “BRM Max % Inhibition” value is recorded as >95% and the IC50 was < 0.1 µM. Further, on BRG-1, the IC50 is 0.1 to 1 µM and the Emax is > 95%.

Turning to `COc1cc(-c2csc(NC(=O)CNC(=O)c3ccc4c(c3)[C@](C)(C#N)COC4)n2)ccn1` [Compound 400, (R)-4-cyano-N-(2-((4-(2-methoxypyridin-4-yl)thiazol-2-yl)amino)-2-oxoethyl)-4-methylisochromane-6-carboxamide], on BRM, the “BRM Max % Inhibition” value is >95% and the IC50 is < 0.1 µM. In addition, at BRG-1, the IC50 was 0.1 to 1 µM and the Emax was > 95%.

In the case of `COc1cccc(-c2csc(NC(=O)CNC(=O)c3ccc4c(c3)[C@](C)(C#N)COC4)n2)c1` [Compound 401, (R)-4-cyano-N-(2-((4-(3-methoxyphenyl)thiazol-2-yl)amino)-2-oxoethyl)-4-methylisochromane-6-carboxamide], on BRM, the “BRM Max % Inhibition” value is listed as >95% and the IC50 was < 0.1 µM. On BRG-1, the IC50 lay in the range of 0.1 to 1 µM and the Emax was > 95%.
